From the supplement of paper PMC10307832

compound: CN1CCC(CC1)OC2=CC(=C(C=C2)NC3=NC=C4C(=N3)N(C(=O)N4C)C5CCCC5)OC [AZ3146] + COc1cc2c(Oc3ccc(NC(=O)C4(C(=O)Nc5ccc(F)cc5)CC4)cc3F)ccnc2cc1OCCCN1CCOCC1 [Foretinib] (partner 0.25 µM); experiment: relative viability (nuclei count vs DMSO), 5 days (fraction); higher = more cells survive; conditions: first compound 0.08 µM
Method in brief: (§1)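 Relative viability is defined as nuclei in treated wells over nuclei in vehicle wells. Duplicate plates were run and medians reported. Lung cancer cell lines in 1536-well plates were dosed by pin tool one day after seeding, with one drug or with a fixed anchor-drug dose plus five library-drug doses (not always all listed) in √10 steps, and nuclei were counted after 5 days.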

Cell Line	relative viability
LC-2-ad	0.735
HCC-827	1.08
CAL-12T	1.08
HCC-15	1.1
HOP-62	1.06
NCI-H460	1.01
LU99A	0.699
NCI-H2085	0.898
A-427	1.02
NCI-H520	0.566
NCI-H838	1.06
NCI-H596	0.793
NCI-H3122	0.924
NCI-H1395	0.989
201T	0.945
NCI-H1993	0.866
NCI-H1355	0.974
NCI-H2405	1.02
NCI-H1437	1.24
COR-L 105	1.11
H3255	0.773
NCI-H2347	0.89
NCI-H1975	0.915
NCI-H441	0.92
NCI-H1650	1.29
NCI-H1915	0.92
NCI-H2087	1.06
HCC-366	0.791

same assay, conditions: first compound 0.253 µM

Cell Line	relative viability
LXF-289	0.989
NCI-H322M	0.943
LC-2-ad	0.905
HCC-827	1
CAL-12T	1.12
HCC-15	0.981
HOP-62	1.16
NCI-H460	1.06
LU99A	0.87
NCI-H2085	1
A-427	1.07
NCI-H520	0.867
NCI-H838	1.09
NCI-H596	0.714
NCI-H3122	1.02
BEN	0.447

Cell Line	relative viability
NCI-H1395	0.962
201T	1.02
NCI-H1993	0.776
NCI-H1355	0.968
NCI-H2405	1.03
NCI-H1437	1.31
COR-L 105	1.04
H3255	0.764
NCI-H2347	0.934
NCI-H1975	0.886
NCI-H441	0.949
NCI-H1650	1.49
NCI-H1915	1.12
NCI-H2087	1.11
HCC-366	0.924

same assay, conditions: first compound 0.8 µM

Cell Line	relative viability
LXF-289	0.952
NCI-H322M	0.837
LC-2-ad	1.06
HCC-827	1.03
CAL-12T	1.04
HCC-15	1.06
HOP-62	1.01
NCI-H460	0.92
LU99A	0.782
NCI-H2085	0.977
A-427	1
NCI-H520	0.58
NCI-H838	0.954
NCI-H596	0.999
NCI-H3122	0.971
BEN	0.587

Cell Line	relative viability
NCI-H1395	0.949
201T	1.08
NCI-H1993	0.771
NCI-H1355	0.936
NCI-H2405	1.13
NCI-H1437	1.26
COR-L 105	0.857
H3255	0.927
NCI-H2347	0.501
NCI-H1975	1.04
NCI-H441	1.06
NCI-H1650	0.879
NCI-H1915	1.1
NCI-H2087	1.12
HCC-366	0.908

same assay, conditions: first compound 2.53 µM

Cell Line	relative viability
LXF-289	0.978
NCI-H322M	0.738
LC-2-ad	0.935
HCC-827	1.03
CAL-12T	0.98
HCC-15	1.08
HOP-62	1.11
NCI-H460	0.874
LU99A	0.849
NCI-H2085	1
A-427	0.989
NCI-H520	0.91
NCI-H838	1.03
NCI-H596	0.691
NCI-H3122	0.942
BEN	0.715

Cell Line	relative viability
NCI-H1395	1.07
201T	1.13
NCI-H1993	0.834
NCI-H1355	1.04
NCI-H2405	1.1
NCI-H1437	1.35
COR-L 105	0.687
H3255	1.04
NCI-H2347	1.1
NCI-H1975	0.977
NCI-H441	1
NCI-H1650	1
NCI-H1915	1.22
NCI-H2087	1.05
HCC-366	0.974

same assay, conditions: first compound 8 µM

Cell Line	relative viability
LXF-289	0.914
NCI-H322M	0.642
LC-2-ad	0.878
HCC-827	1.09
CAL-12T	0.788
HCC-15	0.791
HOP-62	1.08
NCI-H460	0.312
LU99A	0.869
NCI-H2085	0.868
A-427	1.11
NCI-H520	0.83
NCI-H838	0.788
NCI-H596	0.881
NCI-H3122	1.03
BEN	0.698

Cell Line	relative viability
NCI-H1395	1.02
201T	1.06
NCI-H1993	0.834
NCI-H1355	1.05
NCI-H2405	1.09
NCI-H1437	1.26
COR-L 105	0.455
H3255	0.922
NCI-H2347	1.07
NCI-H1975	0.362
NCI-H441	1.07
NCI-H1650	0.604
NCI-H1915	1.16
NCI-H2087	0.531
HCC-366	0.178

compound: CN1CCC(CC1)OC2=CC(=C(C=C2)NC3=NC=C4C(=N3)N(C(=O)N4C)C5CCCC5)OC [AZ3146] + Nc1nc2[nH]cc(CCc3ccc(C(=O)N[C@@H](CCC(=O)O)C(=O)O)cc3)c2c(=O)[nH]1 [Pemetrexed] (partner 0.2 µM); experiment: as above; conditions: first compound 0.08 µM
Method in brief: as §1

Cell Line	relative viability
LXF-289	0.953
NCI-H322M	0.59
LC-2-ad	0.245
HCC-827	0.291
CAL-12T	1.1
HCC-15	0.222
HOP-62	0.242
NCI-H460	0.0552
NCI-H2085	0.923
A-427	0.898
NCI-H520	0.843
NCI-H838	0.233
NCI-H596	0.478
NCI-H3122	0.197
NCI-H1395	0.783
201T	0.275
NCI-H1993	0.567
NCI-H1355	1.02
NCI-H2405	1.12
NCI-H1437	0.283
COR-L 105	1.19
H3255	0.597
NCI-H2347	0.42
NCI-H1975	0.312
NCI-H441	0.256
NCI-H1650	0.323
NCI-H1915	0.502
NCI-H2087	0.648
HCC-366	0.166

same assay, conditions: first compound 0.253 µM

Cell Line	relative viability
LXF-289	0.85
NCI-H322M	0.585
LC-2-ad	0.29
HCC-827	0.244
CAL-12T	1.15
HCC-15	0.22
HOP-62	0.328
NCI-H460	0.0628
LU99A	0.188
NCI-H2085	0.824
A-427	0.923
NCI-H520	0.735
NCI-H838	0.239
NCI-H596	0.449
NCI-H3122	0.191
BEN	0.641

Cell Line	relative viability
NCI-H1395	0.746
201T	0.328
NCI-H1993	0.542
NCI-H1355	1.02
NCI-H2405	1.06
NCI-H1437	0.327
COR-L 105	1.22
H3255	0.536
NCI-H2347	0.418
NCI-H1975	0.311
NCI-H441	0.251
NCI-H1650	0.324
NCI-H1915	0.517
NCI-H2087	0.683
HCC-366	0.205

same assay, conditions: first compound 0.8 µM

Cell Line	relative viability
LXF-289	0.912
NCI-H322M	0.609
LC-2-ad	0.271
HCC-827	0.252
CAL-12T	1.29
HCC-15	0.221
HOP-62	0.339
NCI-H460	0.0797
LU99A	0.181
NCI-H2085	0.869
A-427	0.976
NCI-H520	0.647
NCI-H838	0.283
NCI-H596	0.574
NCI-H3122	0.203
BEN	0.651
201T	0.32
NCI-H1993	0.539
NCI-H1355	1.03
NCI-H2405	1.1
NCI-H1437	0.3
COR-L 105	0.962
H3255	0.542
NCI-H2347	0.458
NCI-H1975	0.294
NCI-H441	0.251
NCI-H1650	0.366
NCI-H1915	0.602
NCI-H2087	0.684
HCC-366	0.198

same assay, conditions: first compound 2.53 µM

Cell Line	relative viability
LXF-289	0.924
NCI-H322M	0.574
LC-2-ad	0.262
HCC-827	0.269
CAL-12T	1.33
HCC-15	0.224
HOP-62	0.305
NCI-H460	0.06
LU99A	0.165
NCI-H2085	0.887
A-427	0.926
NCI-H520	0.543
NCI-H838	0.269
NCI-H596	0.486
NCI-H3122	0.2
BEN	0.75

Cell Line	relative viability
NCI-H1395	0.91
201T	0.331
NCI-H1993	0.619
NCI-H1355	1.12
NCI-H2405	1.11
NCI-H1437	0.346
COR-L 105	0.645
H3255	0.6
NCI-H2347	0.404
NCI-H1975	0.295
NCI-H441	0.266
NCI-H1650	0.376
NCI-H1915	0.511
NCI-H2087	0.67
HCC-366	0.157

same assay, conditions: first compound 8 µM

Cell Line	relative viability
LXF-289	0.799
NCI-H322M	0.642
LC-2-ad	0.259
HCC-827	0.248
CAL-12T	1.13
HCC-15	0.207
HOP-62	0.365
NCI-H460	0.0682
LU99A	0.186
NCI-H2085	0.705
A-427	0.766
NCI-H520	0.422
NCI-H838	0.211
NCI-H596	0.556
NCI-H3122	0.185
BEN	0.8

Cell Line	relative viability
NCI-H1395	0.661
201T	0.303
NCI-H1993	0.561
NCI-H1355	1.13
NCI-H2405	1.04
NCI-H1437	0.294
COR-L 105	0.799
H3255	0.574
NCI-H2347	0.416
NCI-H1975	0.244
NCI-H441	0.274
NCI-H1650	0.386
NCI-H1915	0.49
NCI-H2087	0.661
HCC-366	0.148
